Patent US6534523B1, “Hepatitis C inhibitor tri-peptides” (Boehringer Ingelheim (Canada) Ltd., priority 1998, dated 2003)

Target: HCV NS3 protease (UniProt P26663)
Type: biochemical, HCV genotype 1b
Set-up: rows headed: IC50 (μM); IC50 (μM)
Settings: Table 7
Method: Recombinant HCV NS3 Protease/NS4A Cofactor Peptide Radiometric Assay
The enzyme was cloned, expressed and prepared according to the protocol described in Example 36. The enzyme was stored at −80° C., thawed on ice and diluted just prior to use in the assay buffer containing the NS4A cofactor peptide.
The substrate used for the NS3 protease/NS4A cofactor peptide radiometric assay, DDIVPC-SMSYTW, is cleaved between the cysteine and the serine residues by the enzyme. The sequence DDIVPC-SMSYTW corresponds to the NS5A/NS5B natural cleavage site in which the cysteine residue in P2 has been substituted for a proline. […] (molar ratio enzyme:cofactor 1:100) in the absence or presence of inhibitors. The separation of substrate from products is performed by adding avidin-coated agarose beads to the assay mixture followed by filtration. The amount of SMS[^125I-Y]TW product found in the filtrate allows for the calculation of the percentage of substrate conversion and of the percentage of inhibition.
The enzymatic reaction was initiated by the addition of the enzyme/NS4A peptide solution and the assay mixture was incubated for 40 min at 23° C. under gentle agitation. Ten (10) μL of 0.5N NaOH were added and 10 μL 1 M MES, pH 5.8 were added to quench the enzymatic reaction.
A non-linear curve fit with the Hill model was applied to the inhibition-concentration data, and the 50% effective concentration (IC50) was calculated by the use of SAS software (Statistical Software System; SAS Institute, Inc. Cary, N.C.). […]
The NS2-NS5B-3′ non coding region was cloned by RT-PCR into the pCR®3 vector (Invitrogen) using RNA extracted from the serum of an HCV genotype 1b infected individual (provided by Dr. Bernard Willems, Hôpital St-Luc, Montréal, Québec, Canada). The NS3-NS4A DNA region was then subcloned by PCR into the pFastBac™ HTa baculovirus expression vector (Gibco/BRL). The vector sequence includes a region encoding a 28-residue N-terminal sequence which contains a hexahistidine tag. The Bac-to-Bac™ baculovirus expression system (Gibco/BRL) was used to produce the recombinant baculovirus. The full length mature NS3 and NS4A heterodimer protein (His-NS3-NS4AFL) was expressed by infecting 10^6 Sf21 cells/mL with the recombinant baculovirus at a multiplicity of infection of 0.1-0.2 at 27° C. The infected culture was harvested 48 to 64 h later by centrifugation at 4° C. The cell pellet was homogenized in 50 mM NaPO4, pH 7.5, 40% glycerol (w/v), 2 mM β-mercaptoethanol, in presence of a cocktail of protease inhibitors. His-NS3-NS4AFL was then extracted from the cell lysate with 1.5% NP-40, 0.5% Triton X-100, 0.5M NaCl, and a DNase treatment. After ultracentrifugation, the soluble extract was diluted 4-fold and bound on a Pharmacia Hi-Trap Ni-chelating column. […] The His-NS3-NS4AFL was stored at −80° C. in 50 mM sodium phosphate, pH 7.5, 10% (w/v) glycerol, 0.5 M NaCl, 0.25 M imidazole, 0.1% NP-40. It was thawed on ice and diluted just prior to use. The protease activity of His-NS3-NS4AFL was assayed in 50 mM Tris-HCl, pH 8.0, 0.25 M sodium citrate, 0.01% (w/v) n-dodecyl-β-D-maltoside, 1 mM TCEP. Five (5) μM of the internally quenched substrate anthranilyl-DDIVPAbu[C(O)—O]-AMY(3-NO2)TW-OH in presence of various concentrations of inhibitor were incubated with 1.5 nM of His-NS3-NS4AFL for 45 min at 23° C. […] The reaction was terminated with the addition of 1M MES, pH 5.8. Fluorescence of the N-terminal product was monitored on a Perkin-Elmer LS-50B fluorometer equipped with a 96-well plate reader (excitation wavelength: 325 nm; emission wavelength: 423 nm).
The following tables list compounds representative of the invention.

Chain of HCV NS3 protease (P26663 1027-1206, other chains not shown): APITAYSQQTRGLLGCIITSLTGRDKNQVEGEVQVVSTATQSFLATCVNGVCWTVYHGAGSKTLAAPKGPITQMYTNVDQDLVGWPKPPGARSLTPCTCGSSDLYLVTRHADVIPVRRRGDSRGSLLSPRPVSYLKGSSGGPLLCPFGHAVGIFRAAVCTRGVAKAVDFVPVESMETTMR

Row | SMILES | IC50 [nM]
1 | C=CC1CC1(NC(=O)C1CC(Oc2cc(-c3csc(NC(C)=O)n3)nc3cc(OC)ccc23)CN1C(=O)C(NC(=O)OC(C)(C)C)C(C)(C)C)C(=O)O (stereo not drawn) [compound 719] | 18
2 | C=CC1CC1(NC(=O)C1CC(Oc2cc(-c3cnn(C(C)(C)C)c3)nc3cc(OC)ccc23)CN1C(=O)C(NC(=O)OC(C)(C)C)C(C)(C)C)C(=O)O (stereo not drawn) [compound 720] | 30
3 | C=CC1CC1(NC(=O)C1CC(Oc2cc(N3CCC(OC)CC3)nc3cc(OC)ccc23)CN1C(=O)C(NC(=O)OC(C)(C)C)C(C)(C)C)C(=O)O (stereo not drawn) [compound 721] | 45
4 | C=CC1CC1(NC(=O)C1CC(Oc2cc(-c3csc(NCC)n3)nc3cc(OC)ccc23)CN1C(=O)C(NC(=O)OC(C)(C)C)C(C)(C)C)C(=O)O (stereo not drawn) [compound 722] | 48
5 | C=CC1CC1(NC(=O)C1CC(Oc2cc(-c3csc(NC(C)C)n3)nc3cc(OC)ccc23)CN1C(=O)C(NC(=O)OC(C)(C)C)C(C)(C)C)C(=O)O (stereo not drawn) [compound 723] | 47
6 | C=CC1CC1(NC(=O)C1CC(Oc2cc(N3CCC(C)CC3)nc3cc(OC)ccc23)CN1C(=O)C(NC(=O)OC(C)(C)C)C(C)(C)C)C(=O)O (stereo not drawn) [compound 724] | 75
7 | C=CC1CC1(NC(=O)C1CC(Oc2cc(-c3ccncn3)nc3cc(OC)ccc23)CN1C(=O)C(NC(=O)OC(C)(C)C)C(C)(C)C)C(=O)O (stereo not drawn) [compound 725] | 46
8 | C=CC1C[C@]1(NC(=O)[C@@H]1C[C@@H](Oc2cc(C(C)C)nc3cc(OC)ccc23)CN1C(=O)[C@@H](NC(=O)OC(C)(C)C)C(C)(C)C)C(=O)O (stereo partly drawn) [compound 726] | 250
9 | C=CC1CC1(NC(=O)C1CC(Oc2cc(-c3cccnc3)nc3cc(OC)ccc23)CN1C(=O)C(NC(=O)OC(C)(C)C)C(C)(C)C)C(=O)O (stereo not drawn) [compound 727] | 70
10 | C=CC1CC1(NC(=O)C1CC(Oc2cc(-c3csc(CS(C)(=O)=O)n3)nc3cc(OC)ccc23)CN1C(=O)C(NC(=O)OC(C)(C)C)C(C)(C)C)C(=O)O (stereo not drawn) [compound 728] | 22
11 | C=CC1CC1(NC(=O)C1CC(Oc2cc(-c3cnccn3)nc3cc(OC)ccc23)CN1C(=O)C(NC(=O)OC(C)(C)C)C(C)(C)C)C(=O)O (stereo not drawn) [compound 729] | 200
12 | C=CC1CC1(NC(=O)C1CC(Oc2cc(OC(C)C)nc3cc(OC)ccc23)CN1C(=O)C(NC(=O)OC(C)(C)C)C(C)(C)C)C(=O)O (stereo not drawn) [compound 730] | 42
13 | C=CC1CC1(NC(=O)C1CC(Oc2cc(OCCC)nc3cc(OC)ccc23)CN1C(=O)C(NC(=O)OC(C)(C)C)C(C)(C)C)C(=O)O (stereo not drawn) [compound 731] | 31
14 | C=CC1CC1(NC(=O)C1CC(Oc2cc(-c3csc(-c4csc(C)n4)n3)nc3cc(OC)ccc23)CN1C(=O)C(NC(=O)OC(C)(C)C)C(C)(C)C)C(=O)O (stereo not drawn) [compound 732] | 20
15 | C=CC1CC1(NC(=O)C1CC(Oc2cc(-c3csc(NC(C)(C)C)n3)nc3cc(OC)ccc23)CN1C(=O)C(NC(=O)OC(C)(C)C)C(C)(C)C)C(=O)O (stereo not drawn) [compound 733] | 28
16 | C=CC1CC1(NC(=O)C1CC(Oc2cc(SCC)nc3cc(OC)ccc23)CN1C(=O)C(NC(=O)OC(C)(C)C)C(C)(C)C)C(=O)O (stereo not drawn) [compound 734] | 44
17 | C=CC1CC1(NC(=O)C1CC(Oc2cc(OCC(C)C)nc3cc(OC)ccc23)CN1C(=O)C(NC(=O)OC(C)(C)C)C(C)(C)C)C(=O)O (stereo not drawn) [compound 735] | 58
18 | C=CC1C[C@]1(NC(=O)[C@@H]1C[C@@H](Oc2cc(C(C)(C)C)nc3cc(OC)ccc23)CN1C(=O)[C@@H](NC(=O)OC(C)(C)C)C(C)(C)C)C(=O)O (stereo partly drawn) [compound 736] | 250
19 | C=CC1CC1(NC(=O)C1CC(Oc2cc(C3CCCCC3)nc3cc(OC)ccc23)CN1C(=O)C(NC(=O)OC(C)(C)C)C(C)(C)C)C(=O)O (stereo not drawn) [compound 737] | 110

Same assay, conditions: Table 8

Row | SMILES | IC50 [nM]
20 | C=CC1CC1(NC(=O)C1CC(Oc2cc(-c3ccccc3)nc3cc(OC)ccc23)CN1C(=O)C(NC(=O)C(O)C1CCCCC1)C(C)(C)C)C(=O)O (stereo not drawn) [compound 802] | 24
21 | C=CC1CC1(NC(=O)C1CC(Oc2cc(-c3ccccc3)nc3cc(OC)ccc23)CN1C(=O)C(NC(=O)CC1CCCCC1)C(C)(C)C)C(=O)O (stereo not drawn) [compound 804] | 32
22 | C=CC1CC1(NC(=O)C1CC(Oc2cc(-c3ccccc3)nc3cc(OC)ccc23)CN1C(=O)C(NC(C)=O)C(C)(C)C)C(=O)O (stereo not drawn) [compound 805] | 83
23 | C=CC1CC1(NC(=O)C1CC(Oc2cc(-c3ccccc3)nc3cc(OC)ccc23)CN1C(=O)C(NC(=O)C(C)C1CCCCC1)C(C)(C)C)C(=O)O (stereo not drawn) [compound 806] | 36
24 | C=CC1CC1(NC(=O)C1CC(Oc2cc(-c3ccccc3)nc3cc(OC)ccc23)CN1C(=O)C(NC(=O)NC(C)C)C(C)(C)C)C(=O)O (stereo not drawn) [compound 807] | 10
25 | C=CC1CC1(NC(=O)C1CC(Oc2cc(-c3ccccc3)nc3cc(OC)ccc23)CN1C(=O)C(NC(=O)NC1CCCCC1)C(C)(C)C)C(=O)O (stereo not drawn) [compound 808] | 8
26 | C=CC1CC1(NC(=O)C1CC(Oc2cc(-c3ccccc3)nc3cc(OC)ccc23)CN1C(=O)C(Nc1ccccc1)C(C)C)C(=O)O (stereo not drawn) [compound 809] | 71
27 | C=CC1CC1(NC(=O)C1CC(Oc2cc(-c3ccccc3)nc3cc(OC)ccc23)CN1C(=O)C(NC(=O)COc1c(C)cccc1C)C(C)(C)C)C(=O)O (stereo not drawn) [compound 810] | 450
28 | C=CC1CC1(NC(=O)C1CC(Oc2cc(-c3ccc(Cl)cc3)nc3cc(OC)ccc23)CN1C(=O)C(NC(=O)OC(C)(C)C)C(C)(C)C)C(=O)O (stereo not drawn) [compound 811] | 40
29 | C=CC1CC1(NC(=O)C1CC(Oc2cc(-c3ccccc3)nc3cc(OC)ccc23)CN1C(=O)C(NC(=O)Nc1ccccc1)C(C)(C)C)C(=O)O (stereo not drawn) [compound 812] | 13
30 | C=CC1CC1(NC(=O)C1CC(Oc2cc(-c3ccccc3)nc3cc(OC)ccc23)CN1C(=O)C(NC(=S)NC(C)(C)C)C(C)(C)C)C(=O)O (stereo not drawn) [compound 813] | 20
31 | C=CC1CC1(NC(=O)C1CC(Oc2cc(-c3ccccc3Cl)nc3cc(OC)ccc23)CN1C(=O)C(NC(=O)OC(C)(C)C)C(C)(C)C)C(=O)O (stereo not drawn) [compound 814] | 130
32 | C=CC1CC1(NC(=O)C1CC(Oc2cc(-c3cccc(Cl)c3)nc3cc(OC)ccc23)CN1C(=O)C(NC(=O)OC(C)(C)C)C(C)(C)C)C(=O)O (stereo not drawn) [compound 815] | 160
33 | C=CC1CC1(NC(=O)C1CC(Oc2cc(-c3ccccc3)nc3cc(OC)ccc23)CN1C(=O)C(NC(=O)NCC)C(C)(C)C)C(=O)O (stereo not drawn) [compound 816] | 32
34 | C=CC1CC1(NC(=O)C1CC(Oc2cc(-c3ccccc3)nc3cc(OC)ccc23)CN1C(=O)C(NC(=O)NCc1ccccc1)C(C)(C)C)C(=O)O (stereo not drawn) [compound 817] | 17
35 | C=CC1CC1(NC(=O)C1CC(Oc2cc(-c3ccccc3)nc3cc(OC)ccc23)CN1C(=O)C(NC(=S)NC1CCCCC1)C(C)(C)C)C(=O)O (stereo not drawn) [compound 818] | 19
36 | C=CC1CC1(NC(=O)C1CC(Oc2cc(-c3ccccc3)nc3cc(OC)ccc23)CN1C(=O)C(Nc1ccc([N+](=O)[O-])c(C(F)(F)F)c1)C(C)C)C(=O)O (stereo not drawn) [compound 819] | 320
37 | C=CC1CC1(NC(=O)C1CC(Oc2cc(-c3ccccc3)nc3cc(OC)ccc23)CN1C(=O)C(Nc1ccc(N)c(C(F)(F)F)c1)C(C)C)C(=O)O (stereo not drawn) [compound 820] | 63
38 | C=CC1CC1(NC(=O)C1CC(Oc2cc(-c3ccccc3)nc3cc(OC)ccc23)CN1C(=O)C(Nc1cccc(OC)c1)C(C)C)C(=O)O (stereo not drawn) [compound 821] | 120
39 | C=CC1CC1(NC(=O)C1CC(Oc2cc(-c3ccccc3)nc3cc(OC)ccc23)CN1C(=O)C(Nc1ccc(C)cc1)C(C)C)C(=O)O (stereo not drawn) [compound 822] | 50
